Reference: PubChem BioAssay AID2060900 (Molecular Pharmacology Branch, DTP, NCI, 2025)

Tested on: 521955-158-R2-J5-PDC complex spheroids, viability
Test: Anticancer human tumor 521955-158-R2-J5-PDC patient-derived pancreatic carcinoma cell line growth inhibition [RAS]
Settings: for IC50: curve of first compound; for viability, T/C: stronger effect = lower value
Method in brief: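 Agents were tested in combination matrices in half-log decrements from a top concentration at or near clinical Cmax (10 microM if undetermined). Targets were multi-cell spheroids of tumour lines plus HUVEC and MSC stromal cells.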
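Also: compound exposure lasted seven days before the viability read.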
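For viability, T/C in this document: spheroids also contain HUVEC endothelial cells and mesenchymal stem cells as stroma.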

C=CC(=O)N1CCN(c2nc(OCC3CCCN3C)nc3c(F)c(-c4nc(N)cc(C)c4C(F)(F)F)c(Cl)cc23)C(C)C1 (centres undefined) + C#Cc1c(F)ccc2cc(O)cc(-c3ncc4c(N5CC6CCC(C5)N6)nc(OCC56CCCN5CC(F)C6)nc4c3F)c12
IC50 (second compound 0.0316 µM): > 1000 nM | IC50 (second compound 0.1 µM): > 1000 nM | IC50 (second compound 0.316 µM): > 1000 nM | IC50 (second compound 1 µM): > 1000 nM | IC50 (second compound 3.16 µM): < 3.16 nM | IC50 (second compound 10 µM): < 3.16 nM | viability, T/C (second compound 0.0316 µM, first compound 0.00316 µM): 61.3% | viability, T/C (second compound 0.0316 µM, first compound 0.01 µM): 63.1% | viability, T/C (second compound 0.0316 µM, first compound 0.0316 µM): 74.1% | viability, T/C (second compound 0.0316 µM, first compound 0.1 µM): 57.2% | viability, T/C (second compound 0.0316 µM, first compound 0.316 µM): 55.6% | viability, T/C (second compound 0.0316 µM, first compound 1 µM): 71.8% | viability, T/C (second compound 0.1 µM, first compound 0.00316 µM): 55.9% | viability, T/C (second compound 0.1 µM, first compound 0.01 µM): 64.8% | viability, T/C (second compound 0.1 µM, first compound 0.0316 µM): 58.7% | viability, T/C (second compound 0.1 µM, first compound 0.1 µM): 48.8% | viability, T/C (second compound 0.1 µM, first compound 0.316 µM): 56.6% | viability, T/C (second compound 0.1 µM, first compound 1 µM): 61.8% | viability, T/C (second compound 0.316 µM, first compound 0.00316 µM): 53.2% | viability, T/C (second compound 0.316 µM, first compound 0.01 µM): 56.8% | viability, T/C (second compound 0.316 µM, first compound 0.0316 µM): 58.5% | viability, T/C (second compound 0.316 µM, first compound 0.1 µM): 54.8% | viability, T/C (second compound 0.316 µM, first compound 0.316 µM): 52.8% | viability, T/C (second compound 0.316 µM, first compound 1 µM): 52.1% | viability, T/C (second compound 1 µM, first compound 0.00316 µM): 48% | viability, T/C (second compound 1 µM, first compound 0.01 µM): 72.6% | viability, T/C (second compound 1 µM, first compound 0.0316 µM): 47.1% | viability, T/C (second compound 1 µM, first compound 0.1 µM): 60.7% | viability, T/C (second compound 1 µM, first compound 0.316 µM): 53.2% | viability, T/C (second compound 1 µM, first compound 1 µM): 59.2% | viability, T/C (second compound 3.16 µM, first compound 0.00316 µM): 42.4% | viability, T/C (second compound 3.16 µM, first compound 0.01 µM): 52.1% | viability, T/C (second compound 3.16 µM, first compound 0.0316 µM): 54.8% | viability, T/C (second compound 3.16 µM, first compound 0.1 µM): 56.9% | viability, T/C (second compound 3.16 µM, first compound 0.316 µM): 50.6% | viability, T/C (second compound 3.16 µM, first compound 1 µM): 47.2% | viability, T/C (second compound 10 µM, first compound 0.00316 µM): 40% | viability, T/C (second compound 10 µM, first compound 0.01 µM): 56.9% | viability, T/C (second compound 10 µM, first compound 0.0316 µM): 38.3% | viability, T/C (second compound 10 µM, first compound 0.1 µM): 43.6% | viability, T/C (second compound 10 µM, first compound 0.316 µM): 39.3% | viability, T/C (second compound 10 µM, first compound 1 µM): 29.8%

CC1(C)CCC(Nc2ncc(C(F)(F)F)c(-c3c[nH]c4c(P(C)(C)=O)c(C#N)ccc34)n2)CN1 (centres undefined) + C#Cc1c(F)ccc2cc(O)cc(-c3ncc4c(N5CC6CCC(C5)N6)nc(OCC56CCCN5CC(F)C6)nc4c3F)c12
IC50 (second compound 0.0316 µM): < 0.949 nM | IC50 (second compound 0.1 µM): < 0.949 nM | IC50 (second compound 0.316 µM): < 0.949 nM | IC50 (second compound 1 µM): < 0.949 nM | IC50 (second compound 3.16 µM): < 0.949 nM | IC50 (second compound 10 µM): < 0.949 nM | viability, T/C (second compound 0.0316 µM, first compound 0.000949 µM): 43.7% | viability, T/C (second compound 0.0316 µM, first compound 0.003 µM): 38.4% | viability, T/C (second compound 0.0316 µM, first compound 0.00949 µM): 37.1% | viability, T/C (second compound 0.0316 µM, first compound 0.03 µM): 31.4% | viability, T/C (second compound 0.0316 µM, first compound 0.0949 µM): 43.7% | viability, T/C (second compound 0.0316 µM, first compound 0.3 µM): 41.9% | viability, T/C (second compound 0.1 µM, first compound 0.000949 µM): 43.5% | viability, T/C (second compound 0.1 µM, first compound 0.003 µM): 40.8% | viability, T/C (second compound 0.1 µM, first compound 0.00949 µM): 33% | viability, T/C (second compound 0.1 µM, first compound 0.03 µM): 29.6% | viability, T/C (second compound 0.1 µM, first compound 0.0949 µM): 39.7% | viability, T/C (second compound 0.1 µM, first compound 0.3 µM): 33.8% | viability, T/C (second compound 0.316 µM, first compound 0.000949 µM): 40.4% | viability, T/C (second compound 0.316 µM, first compound 0.003 µM): 37.5% | viability, T/C (second compound 0.316 µM, first compound 0.00949 µM): 29.9% | viability, T/C (second compound 0.316 µM, first compound 0.03 µM): 29.4% | viability, T/C (second compound 0.316 µM, first compound 0.0949 µM): 30.3% | viability, T/C (second compound 0.316 µM, first compound 0.3 µM): 29.2% | viability, T/C (second compound 1 µM, first compound 0.000949 µM): 38.5% | viability, T/C (second compound 1 µM, first compound 0.003 µM): 31.8% | viability, T/C (second compound 1 µM, first compound 0.00949 µM): 25.5% | viability, T/C (second compound 1 µM, first compound 0.03 µM): 26.8% | viability, T/C (second compound 1 µM, first compound 0.0949 µM): 24.3% | viability, T/C (second compound 1 µM, first compound 0.3 µM): 25% | viability, T/C (second compound 3.16 µM, first compound 0.000949 µM): 33.5% | viability, T/C (second compound 3.16 µM, first compound 0.003 µM): 27.8% | viability, T/C (second compound 3.16 µM, first compound 0.00949 µM): 25.1% | viability, T/C (second compound 3.16 µM, first compound 0.03 µM): 25% | viability, T/C (second compound 3.16 µM, first compound 0.0949 µM): 21.1% | viability, T/C (second compound 3.16 µM, first compound 0.3 µM): 24.8% | viability, T/C (second compound 10 µM, first compound 0.000949 µM): 29.7% | viability, T/C (second compound 10 µM, first compound 0.003 µM): 25.9% | viability, T/C (second compound 10 µM, first compound 0.00949 µM): 20.2% | viability, T/C (second compound 10 µM, first compound 0.03 µM): 21.2% | viability, T/C (second compound 10 µM, first compound 0.0949 µM): 21.7% | viability, T/C (second compound 10 µM, first compound 0.3 µM): 20.1%
